These results are taken from patent US12458630B2, “Combination therapy for cancer” (The Regents of the University of California, priority 2020, dated 2025).

The test system of one test is KC6141 mouse PDAC cells. Kind of test: Cell viability assay (CCK-8). Format: cell-based. To be noted: 3 days; for cell viability vs vehicle: WT, Ikkα-KD, Nhe1-KD, Ikkα-KD;Nhe1-KD KC6141 cells. The method, then:
(§1) Extracellular Matrix (ECM) Preparation. Skin fibroblasts were seeded on 6/12/96-well plates. One day after plating, cells were switched into DMEM (with pyruvate) with 10% dialysed FBS supplemented with or without 500 μM ^3H-proline and 100 μM Vitamin C. Cells were cultured for 6 days with media renewal every 24 h. After six days, skin fibroblasts were removed by washing in 1 ml or 500 μl or 100 μl per well PBS with 0.5% (v/v) Triton X-100 and 20 mM NH4OH. ECM was washed five times with PBS before plating KC6141 cells. The following day, KC6141 cells were switched into the indicated medium for 24 or 72 hrs.
Cell viability assay. Cell viability was determined with Cell Counting Kit-8 assay (CCK-8 assay kit, Glpbio). Cells were plated in 96-well plates at a density of 3000 cells (MIA PaCa-2) or 1500 cells (KC6141) per well and incubated overnight prior to treatment. EIPA (10 μM), MRT68921 (600 nM) or erlotinib (2 μM, Sigma) were added to the wells for 72 and 96 hrs. Next, 10 μL of CCK-8 was added to each well. The optical density was read at 450 nm using a microplate reader (FilterMax F5, Molecular Devices, USA) at day 0, 1, 2, 3, and 4. For glutamine-deprivation assays, cells in 96-well plates were rinsed briefly in PBS and incubated in the 0.2 mM glutamine. Glutamine-free DMEM medium was supplemented with 0.2 mM glutamine in the presence of 10% dialysed FBS and 25 mM HEPES. For some conditions, the medium was supplemented with a final concentration of 2% BSA (Fraction V, fatty-acid-, nuclease and protease-free, Calbiochem). For all experiments, media were replaced every 24 hrs. Viable cell counts were obtained using CCK-8 assay described as above.
In some embodiments, cells were plated in 96-well plates coated with or without ECM at a density of 3000 cells (MIA PaCa-2, 1444, 1305, COLO 357/FG) or 1500 cells (KC6141) per well and incubated overnight prior to treatment. EIPA (10.5 μM), IPI549 (600 nM), MBQ-167 (500 nM), MRT68921 (600 nM) or erlotinib (2 μM, Sigma), ML385 (10 μM, Sigma), HCQ (10 μM or 80 μM) or their combinations were added to the wells for 24, 72 or 96 hrs. Next, 10 μL of CCK-8 was added to each well. The optical density was read at 450 nm using a microplate reader (FilterMax F5, Molecular Devices, USA) at day 0, 1, 2, 3, and 4. For glutamine-deprivation assays, cells in 96-well plates were rinsed briefly in PBS and incubated in the 0.2 mM glutamine. Glutamine-free DMEM medium was supplemented with 0.2 mM glutamine in the presence of 10% dialyzed FBS and 25 mM HEPES. For glucose-deprivation assays, cells in 96-well plates were rinsed briefly in PBS and incubated in the 0.5 mM glucose. Glucose-free DMEM medium was supplemented with 0.5 mM glucose in the presence of 10% dialyzed FBS and 25 mM HEPES. For some conditions, the medium was supplemented with a final concentration of 2% BSA (Fraction V, fatty-acid-, nuclease and protease-free, Calbiochem). For all experiments, media were replaced every 24 hrs. Viable cell counts were obtained using CCK-8 assay described as above.

The test system of test [1] is KC6141 cells. Kind of test: Luminescence ATP detection assay. Format: cell-based, mouse. The note with it: 0.5 mM glucose, 24 hrs; for cellular ATP: KC6141 cells on ECM, EIPA 10.5 μM, MBQ-167 500 nM, MRT68921 600 nM. The method, then: as §1
Luminescence ATP Detection Assay. Intracellular ATP level was determined with luminescence ATP detection assay system (PerkinElmer) according to manufacturer's protocol. Briefly, KC6141 cells were grown on 96-well plates coated with or without ECM in the presence of 100 μl 0.5 mM glucose medium with or without EIPA (10.5 μM), MBQ-167 (500 nM), MRT68921 (600 nM) or their combinations for 24 hrs. 50 μl mammalian cell lysis solution was added and shaken for 5 minutes. Next, 50 μl substrate solution was added and shaken for five minutes. Finally, plate was adapted in dark for 10 minutes and luminescence was measured.

The subject of test [2] is KC6141 cells. Kind of test: NADPH/NADP measurement. To be noted: 0.5 mM glucose, 24 hrs; for NADPH to NADP ratio: KC6141 cells on ECM. It is filed as cell-based, mouse. As to the method: Extracellular Matrix (ECM) Preparation. Skin fibroblasts were seeded on 6/12/96-well plates. One day after plating, cells were switched into DMEM (with pyruvate) with 10% dialysed FBS supplemented with or without 500 μM ^3H-proline and 100 μM Vitamin C. Cells were cultured for 6 days with media renewal every 24 h. After six days, skin fibroblasts were removed by washing in 1 ml or 500 μl or 100 μl per well PBS with 0.5% (v/v) Triton X-100 and 20 mM NH4OH. ECM was washed five times with PBS before plating KC6141 cells. The following day, KC6141 cells were switched into the indicated medium for 24 or 72 hrs. NADPH/NADP Measurement. NADPH and NADP measurement was performed using NADP/NADPH-Glo™ Assays (Promega #G9081) according to manufacturer's protocol. Briefly, KC6141 cells were grown on 96-well plates coated with ECM and treated as above. Then medium was removed and replaced with 50 μl of PBS and 50 μl of base solution with 1% DTAB. The plate was briefly mixed to ensure homogeneity and cell lysis. 50 μl of each sample was removed to an empty well for acid treatment. 25 μl per well of 0.4N HCl was added into these samples. All samples were incubated for 15 minutes at 60° C. and then equilibrated for 10 minutes at room temperature. 25 μl of 0.5M Trizma® base was added into each well of acid-treated cells to neutralize the acid. 50 μl of HCl/Trizma® solution was added to each well containing base-treated samples. Then 100 μl of NADP/NADPH-Glo™ Detection Reagent was added into each well and incubated for 30 minutes at room temperature. Luminescence was recorded using a luminometer.

For test [3], the system named is KC6141 cells. Kind of test: BrdU incorporation (immunofluorescence). Format: cell-based, mouse. To be noted: 0.5 mM glucose, 24 hrs; for BrdU incorporation (cell proliferation): KC6141 cells on ECM.

“Also recorded” adds a separate entry of the source.

On to `CN1CCc2cc(Nc3ncc(C4CC4)c(NCCCNC(=O)C4CCC4)n3)ccc2C1` [MRT68921], for which the “cell growth, single agent” value with KC6141 mouse PDAC cells (IKKα KD KC6141 cells, erlotinib 2 μM, MRT68921 600 nM) is on record as “limited”. In the test on KC6141 mouse PDAC cells, the “cell viability vs vehicle” value was “suppression of cell viability”. Moreover, the “cellular ATP” value in the test on KC6141 cells [1] is “further elevated”. In the test on KC6141 cells [2], the “NADPH to NADP ratio” value was “further elevated”. The “BrdU incorporation (cell proliferation)” value with KC6141 cells [3] is on record as “further elevated”; with KC6141 cells [3] (listed as MRT), “enhanced cell proliferation in WT, but not in Nrf2 KD KC6141”.
Regarding `CCN(c1nc(N)c(C(=O)N=C(N)N)nc1Cl)C(C)C` [EIPA, 5-(N-ethyl-N-isopropyl) amiloride], the “sensitivity to single agent (cell viability)” value with KC6141 mouse PDAC cells (IKKα-deficient KC6141 cells) is “very sensitive”. In addition, in the test with KC6141 mouse PDAC cells (WT and IKKα KD 6141 cells on ECM, 0.5 mM glucose, EIPA, IPI549 600 nM, MBQ-167 500 nM), the “cell viability enhanced by extracellular matrix (ECM)” value is on record as “suppressed”. Besides, in the test with KC6141 mouse PDAC cells, the “cell viability vs vehicle” value is on record as “suppression of cell viability”. The “cellular ATP” value in the test on KC6141 cells [1] is “reduced”. The “cellular ATP in p62/NRF2 ablated cells” value with KC6141 cells [1] (p62 KD or Nrf2 KD KC6141 cells on ECM) is listed as “ineffective”. Moreover, the “NADPH to NADP ratio” value in the test on KC6141 cells [2] was “reduced”. In the test on KC6141 cells [2] (Nrf2 KD KC6141 cells on ECM), the “NADPH to NADP ratio in NRF2 ablated cells” value is “ineffective”. In the test on KC6141 cells [3], the “BrdU incorporation (cell proliferation)” value was “reduced; also recorded: suppressed cell proliferation in all conditions”. Moreover, in the test on KC6141 cells [3] (Nrf2 KD KC6141 cells on ECM), the “BrdU incorporation in NRF2 ablated cells” value was “ineffective”.
